According to US10857236B2, “Sustained release nanocomposite, a process for producing the same and use thereof” (SZEGEDI TUDOMÁNYEGYETEM, priority 2015, dated 2020):
One block for each molecule: values may come before it.

Experiments:
[1] = tested on: somatosensory evoked potentials (SEPs); test: in vivo amplitudes of somatosensory evoked potentials after peripheral administration; design: species or system male Wistar rats; conditions: intraperitoneal administration, 300 mg/kg, n=5
Excerpt: The preparation of the corresponding composite (FIG. 1) was accomplished with the following parameters. […] At a neutral pH the compact structure of the protein offers an opportunity to enclose large amount of kynurenic acid. In the “heart shaped” conformation of the BSA, the hydrophobic parts directed inside the conformation can form hydrogen-bridge, hydrophobic, furthermore ππ interactions with the KYNA molecule. […] After the in vitro drug release experiments the KYNA permeability was investigated with the help of an in vitro blood-brain barrier model. […] The animal experiments were performed on male Wistar rats (300 g, n=30). During the tests the effect of the peripherally administered KYNA was investigated in the central nervous system.

[2] = stability study of KYNA in MQ with and without 150 mM NaCl and in buffer
Method: New types of nanocomposites have been prepared within physiological conditions, in the nano-size range for the purpose of crossing the pharmaceutically active ingredients through the blood-brain barrier. […] The amount of the material constituting the composites, than the conditions of the preparation were determined. Stability studies were performed for the active ingredients by ensuring various conditions (pH=3 to 8 in physiological solution and without said physiological solution, in both phosphate and HEPES buffers). […]
The release tests were made in case of KYNA in PBS buffer at pH=7.4. (physiological solution). […]

[3] = tested on: microvessel rat brain endothelial cells; test: KYNA permeability in in vitro blood-brain barrier model; type: in vitro ADME; conditions: 20 μM KYNA final concentration, 1 hour, corrected for empty filters
Method: (§1) The permeability of KYNA through the blood-brain barrier from BSA/KYNA/PAH nanocapsules was determined by means of an in vitro blood-brain barrier model. The description of the model is the following: microvessel rat brain endothelial cells were isolated from 2 to 3 weeks old Wistar animals by means of a method described earlier (Wilhelm és munkatársai, 2011). After the removal of the meninges, the brain tissue was dissectioned to small pieces, then it was digested by type 2 collagenase and collagenase/dispase, finally it was centrifuged on percoll gradient. The microvessel fragments were plated on collagenIV/fibronectin-coated Petri dishes and were cultured in DMEM/F12 in the presence of plasma serum and growth factors. […]
(§2) From these samples the concentration of KYNA was determined using an Agilent 1100 HPLC-MS system (Agilent Technologies, Santa Clara, Calif., USA).
(§3) To calculate the permeability coefficient the following formulae were applied: PappdQ/(dT×A×C0), wherein dQ stands for the crossed amount of the material, dT stands for the incubation period of time (1 hour), A stands for the surface of the filter and C0 stands for the starting concentration (20 μM). The values thus calculated were compared to the values measured on empty (not containing cells) filters according to the following method: […]).

[4] = in vitro drug release in Franz cell (vertical diffusion cell), kinetic models; type: physicochemical
Method: FIG. 7: A schematic figure of the Franz-cell (vertical diffusion cell) with which the in vitro drug release experiments were carried out. […] The active ingredient release tests were made at two temperatures: at 25 and 37.5° C. (FIGS. 7 and 8).

[5] = KYNA permeability in in vitro blood-brain barrier model; type: in vitro ADME, rat; conditions: Wistar, rat, 20 μM KYNA final concentration, corrected for empty filters, read-out: permeability coefficient Pe
Method: as §1, §2, §3

[6] = IBU containing composites, 25° C.
[7] = IBU containing composites, 37.5° C.
[8] = DOPA containing composites, 25° C.
[9] = DOPA containing composites, 37.5° C.
[10] = KYNA containing composites, 25° C.
[11] = KYNA containing composites, 37.5° C.

SMILES: Nc1ccccc1C(=O)C[C@H](N)C(=O)O [L-KYN, L-kynurenin]
- change of amplitude of somatosensory evoked potentials [1]: no significant change

- demonstrated stability until ([2]; pH 7.4): 72 h
SMILES: NCCc1ccc(O)c(O)c1 [DOPA, dopamine]

- permeability coefficient Pe [3]: 2.96*10^−6 cm/s
SMILES: O=C([O-])c1ccccc1-c1c2ccc(=O)cc-2oc2cc([O-])ccc12.[Na+].[Na+] [Na-fluoresceine]

SMILES: CC(C)Cc1ccc(C(C)C(=O)O)cc1 (stereo not shown) [IBU, ibuprofen]
- Release rate, depending on the concentration, first-order kd [4, 6]: 0.0064 s⁻¹
- Release rate, diffusion controlled, Higuchi kd [4, 6]: 5.6 * 10^−0 s^−1/2
- Release rate, not depending on the concentration, zero-order kd [4, 6]: 0.5 s⁻¹
- Release rate, depending on the concentration, first-order kd [4, 7]: 0.011 s⁻¹
- Release rate, diffusion controlled, Higuchi kd [4, 7]: 8.7 * 10^−0 s^−1/2
- Release rate, not depending on the concentration, zero-order kd [4, 7]: 0.77 s⁻¹

- stability of KYNA ([2]; HEPES (150 mM NaCl), 0 h): stable
- stability of KYNA ([2]; HEPES (150 mM NaCl), 24 h): unstable
- stability of KYNA ([2]; HEPES (150 mM NaCl), 48 h): unstable
- stability of KYNA ([2]; HEPES (150 mM NaCl), 72 h): unstable
- stability of KYNA ([2]; HEPES (150 mM NaCl), 96 h): unstable
- demonstrated stability until ([2]; PBS buffer at pH=7.4 (physiological solution), release tests of IBU): 96 h
- demonstrated stability until ([2]; PBS buffer at pH=7.4 (physiological solution), release tests of KYNA): 72 h
- degrading of KYNA as a result of the buffers ([2]; in buffer): already starts in the first hours
- stability of KYNA ([2]; pH 3 (MQ + 150 mM NaCl), 0 h): stable
- stability of KYNA ([2]; pH 3 (MQ + 150 mM NaCl), 24 h): stable
- stability of KYNA ([2]; pH 3 (MQ + 150 mM NaCl), 48 h): stable
- stability of KYNA ([2]; pH 3 (MQ + 150 mM NaCl), 72 h): stable
- stability of KYNA ([2]; pH 3 (MQ + 150 mM NaCl), 96 h): unstable
- stability of KYNA ([2]; pH 3 (MQ), 0 h): stable
- stability of KYNA ([2]; pH 3 (MQ), 24 h): stable
- stability of KYNA ([2]; pH 3 (MQ), 48 h): stable
- stability of KYNA ([2]; pH 3 (MQ), 72 h): stable
- stability of KYNA ([2]; pH 3 (MQ), 96 h): unstable
- stability of KYNA ([2]; pH 4 (MQ + 150 mM NaCl), 0 h): stable
- stability of KYNA ([2]; pH 4 (MQ + 150 mM NaCl), 24 h): stable
- stability of KYNA ([2]; pH 4 (MQ + 150 mM NaCl), 48 h): stable
- stability of KYNA ([2]; pH 4 (MQ + 150 mM NaCl), 72 h): stable
- stability of KYNA ([2]; pH 4 (MQ + 150 mM NaCl), 96 h): unstable
- stability of KYNA ([2]; pH 4 (MQ), 0 h): stable
- stability of KYNA ([2]; pH 4 (MQ), 24 h): stable
- stability of KYNA ([2]; pH 4 (MQ), 48 h): stable
- stability of KYNA ([2]; pH 4 (MQ), 72 h): unstable
- stability of KYNA ([2]; pH 4 (MQ), 96 h): unstable
- stability of KYNA ([2]; pH 5 (MQ + 150 mM NaCl), 0 h): stable
- stability of KYNA ([2]; pH 5 (MQ + 150 mM NaCl), 24 h): stable
- stability of KYNA ([2]; pH 5 (MQ + 150 mM NaCl), 48 h): unstable
- stability of KYNA ([2]; pH 5 (MQ + 150 mM NaCl), 72 h): unstable
- stability of KYNA ([2]; pH 5 (MQ + 150 mM NaCl), 96 h): unstable
- stability of KYNA ([2]; pH 5 (MQ), 0 h): stable
- stability of KYNA ([2]; pH 5 (MQ), 24 h): stable
- stability of KYNA ([2]; pH 5 (MQ), 48 h): stable
- stability of KYNA ([2]; pH 5 (MQ), 72 h): stable
- stability of KYNA ([2]; pH 5 (MQ), 96 h): unstable
- stability of KYNA ([2]; pH 6 (MQ + 150 mM NaCl), 0 h): stable
- stability of KYNA ([2]; pH 6 (MQ + 150 mM NaCl), 24 h): stable
- stability of KYNA ([2]; pH 6 (MQ + 150 mM NaCl), 48 h): stable
- stability of KYNA ([2]; pH 6 (MQ + 150 mM NaCl), 72 h): stable
- stability of KYNA ([2]; pH 6 (MQ + 150 mM NaCl), 96 h): unstable
- stability of KYNA ([2]; pH 6 (MQ), 0 h): stable
- stability of KYNA ([2]; pH 6 (MQ), 24 h): stable
- stability of KYNA ([2]; pH 6 (MQ), 48 h): stable
- stability of KYNA ([2]; pH 6 (MQ), 72 h): unstable
- stability of KYNA ([2]; pH 6 (MQ), 96 h): unstable
- stability of KYNA ([2]; pH 7 (MQ + 150 mM NaCl), 0 h): stable
- stability of KYNA ([2]; pH 7 (MQ + 150 mM NaCl), 24 h): stable
- stability of KYNA ([2]; pH 7 (MQ + 150 mM NaCl), 48 h): stable
- stability of KYNA ([2]; pH 7 (MQ + 150 mM NaCl), 72 h): stable
- stability of KYNA ([2]; pH 7 (MQ + 150 mM NaCl), 96 h): unstable
- stability of KYNA ([2]; pH 7 (MQ), 0 h): stable
- stability of KYNA ([2]; pH 7 (MQ), 24 h): stable
- stability of KYNA ([2]; pH 7 (MQ), 48 h): stable
- stability of KYNA ([2]; pH 7 (MQ), 72 h): unstable
- stability of KYNA ([2]; pH 7 (MQ), 96 h): unstable
- stability of KYNA ([2]; pH 8 (MQ + 150 mM NaCl), 0 h): stable
- stability of KYNA ([2]; pH 8 (MQ + 150 mM NaCl), 24 h): stable
- stability of KYNA ([2]; pH 8 (MQ + 150 mM NaCl), 48 h): stable
- stability of KYNA ([2]; pH 8 (MQ + 150 mM NaCl), 72 h): stable
- stability of KYNA ([2]; pH 8 (MQ + 150 mM NaCl), 96 h): unstable
- stability of KYNA ([2]; pH 8 (MQ), 0 h): stable
- stability of KYNA ([2]; pH 8 (MQ), 24 h): stable
- stability of KYNA ([2]; pH 8 (MQ), 48 h): stable
- stability of KYNA ([2]; pH 8 (MQ), 72 h): stable
- stability of KYNA ([2]; pH 8 (MQ), 96 h): unstable
- Papp at 1 h, 20 µM [5]: 3.71 ×10⁻⁶ cm/s
SMILES: O=C(O)c1cc(=O)c2ccccc2[nH]1 [KYNA, kynurenic acid]
- Release rate, depending on the concentration, first-order kd [4, 8]: 0.0079 s⁻¹
- Release rate, diffusion controlled, Higuchi kd [4, 8]: 6.9 * 10^−0 s^−1/2
- Release rate, not depending on the concentration, zero-order kd [4, 8]: 0.63 s⁻¹
- Release rate, depending on the concentration, first-order kd [4, 9]: 0.0098 s⁻¹
- Release rate, diffusion controlled, Higuchi kd [4, 9]: 7.0 * 10^−0 s^−1/2
- Release rate, not depending on the concentration, zero-order kd [4, 9]: 0.0062 s⁻¹
- Release rate, depending on the concentration, first-order kd [4, 10]: 0.0015 s⁻¹
- Release rate, diffusion controlled, Higuchi kd [4, 10]: 4.9 * 10^−3 s^−1/2
- Release rate, not depending on the concentration, zero-order kd [4, 10]: 0.0004 s⁻¹
- Release rate, diffusion controlled, Higuchi kd [4, 11]: 1.2 * 10^−2 s^−1/2
- Release rate, not depending on the concentration, zero-order kd [4, 11]: 0.001 s⁻¹
- kinetic model that characterizes / best fits the release ([4]; in vitro release profiles): Higuchi model
- change of amplitude of somatosensory evoked potentials [1]: no significant change
